{
  "source": "BindingDB's records for doi:10.1038/305140a0",
  "about": "(College of France, 1983)",
  "note": "Several values for one entry are separate records, joined by “and”; a condition that tells them apart may be missing. Equal values may be shown once.",
  "data": [
    {"target": "T1, 5-hydroxytryptamine receptor 1A (Rattus norvegicus, UniProt P19327)", "T1 sequence (P19327 whole entry)": "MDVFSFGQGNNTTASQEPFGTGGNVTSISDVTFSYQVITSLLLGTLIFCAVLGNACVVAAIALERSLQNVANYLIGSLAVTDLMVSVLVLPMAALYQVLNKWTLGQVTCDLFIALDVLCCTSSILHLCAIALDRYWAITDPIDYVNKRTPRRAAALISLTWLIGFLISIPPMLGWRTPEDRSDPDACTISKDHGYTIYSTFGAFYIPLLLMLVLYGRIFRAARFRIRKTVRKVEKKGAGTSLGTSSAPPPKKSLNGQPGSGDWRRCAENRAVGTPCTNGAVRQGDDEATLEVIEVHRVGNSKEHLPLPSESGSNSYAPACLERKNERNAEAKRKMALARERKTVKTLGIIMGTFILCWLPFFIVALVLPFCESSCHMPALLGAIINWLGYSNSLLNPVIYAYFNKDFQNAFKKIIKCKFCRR", "values": [
      {"smiles": "NCCc1ccc(O)c(O)c1", "Ki": "> 10 µM"},
      {"smiles": "CN1C[C@H](CNC(=O)OCc2ccccc2)C[C@@H]2c3cccc4c3c(cn4C)C[C@H]21", "note": "[METERGOLINE]", "Ki": "0.0347 µM and 0.245 µM"},
      {"smiles": "CN(C)CCCN1c2ccccc2CCc2ccccc21", "Ki": "> 10 µM"},
      {"smiles": "CN1CCC(=C2c3ccccc3CCc3sccc32)CC1", "note": "[NSC_27400]", "Ki": "2.19 µM and 6.17 µM"},
      {"smiles": "O=C(c1ccc(F)cc1)C1CCN(CCn2c(=O)[nH]c3ccccc3c2=O)CC1", "note": "[3-(2-{4-[(4-fluorophenyl)carbonyl]piperidin-1-yl}ethyl)-1,2,3,4-tetrahydroquinazoline-2,4-dione]", "Ki": "4.17 µM and > 10 µM"},
      {"smiles": "COc1ccc2[nH]cc(CCN(C)C)c2c1", "note": "[3-(2-DIMETHYLAMINOETHYL)-5-METHOXYINDOLE]", "Ki": "0.0398 µM and 0.288 µM"},
      {"smiles": "CC(CN1c2ccccc2Sc2ccccc21)N(C)C", "note": "(stereo not drawn) [N,N,alpha-trimethyl-10H-phenothiazine-10-ethanamine]", "Ki": "> 10 µM"},
      {"smiles": "CN1C2CCC1CC(OC(c1ccccc1)c1ccccc1)C2", "note": "(stereo not given)", "Ki": "> 10 µM"},
      {"smiles": "CN(C)CCCSc1ccccc1NC(=O)/C=C/c1ccccc1", "note": "[CINANSERIN]", "Ki": "1.1 µM and > 10 µM"},
      {"smiles": "NCCc1c[nH]c2ccccc12", "note": "[1H-indole-3-ethanamine]", "Ki": "3.72 µM and > 10 µM"}
    ]}
  ]
}
